Results from patent publication US8470983B2, “L-sugar colon cleansing agent and uses thereof” (Aptalis Pharma Canada Inc., priority 2009, dated 2013).

Assays:
[1] = Dissolution of L-glucose monohydrate versus anhydrous L-glucose in water with consumer-like stirring; format: physicochemical; details: for Time of stirring until sample fully dissolved: 53 g L-glucose monohydrate in 240 mL doubly distilled water; for Observation of undissolved solid / clumping / Appearance of final solution: 240 mL water
Protocol: The following describes methods for determining the increased dissolution rate of L-glucose monohydrate comprising compositions.
Each sample comprises approximately an equivalent amount of L-glucose on a weight basis. Carefully, to avoid agitation and mixing, doubly distilled water (240 mL) is added to each beaker. In one example, the solution is stirred immediately after addition of water. In a second example, the solutions are allowed to stand for 5 minutes before agitation. The stiffing was conducted in a manner duplicating the way a consumer is expected to stir a sample prior to use. The following Table summaries these experiments which were conducted in duplicate.

[2] = Comparative Example 2: randomized, single-blind study of L-glucose as bowel preparation before colonoscopy (GPA scale); format: in vivo, human
Protocol: (§1) Global Preparation Assessment
(§2) Excellent=clean colon or small volume of clear liquid
(§3) Good=moderate to large volume of clear to semiclear liquid
(§4) Fair=some semisolid stool suctioned or washed away
(§5) Poor=semisolid or solid stool unable to be suctioned or washed away
A randomized, single-blind study designed to determine the clinical effectiveness of L-glucose as a bowel preparation before colonoscopy was performed. Three dose regimens were evaluated: 24 g in the evening only, 30 g in the evening only, and 24 g in the evening followed by 12 g in the morning (36 g total). Here, Applicant's GPA scale described herein was used to evaluate the preparations. […] Clinical efficacy (defined as a combination of “excellent” and “good” assessments) for the split-dose schedule was 19/27 (70%), as compared to 7/31 (23%) in the single-dose schedule (p<0.001).
As noted above in the description of Applicant's GPA scale, the criteria for determining whether a preparation was deemed “excellent” or “good” was respectively defined as “clean colon or small volume of clear liquid” or “moderate to large volume of clear to semi-clear liquid.” These criteria are more stringent than the rating system used by Raymer et al. discussed supra since Raymer's “excellent” and “good” ratings were respectively defined as “no more than small bits of adherent fecal fluid” and “small amounts of feces or fluid not interfering with the examination.” Thus, Raymer's “excellent” rating would likely not qualify as even a “good” rating in Applicant's GPA scale.

[3] = 90-day dietary study of L-glucose; format: in vivo
Protocol: (§6) In preclinical studies, there was no metabolism of L-glucose in any mammalian species studied. […] The maximum tolerated dose in rats was determined to be 10% dietary level of L-glucose.

[4] = Comparative Example 1: multicenter, double-blind, dose-range-finding study of L-glucose as colon-cleansing agent before colonoscopy; format: in vivo, human; details: single doses 12 g, 16 g, 20 g, 24 g
Protocol: A multicenter, double-blind, dose-range-finding study to evaluate the effectiveness and safety of L-glucose as a colon-cleansing agent before colonoscopy was conducted. Doses used in this study were 12 g, 16 g, 20 g, and 24 g. The assessment of the preparations was based on the scale used in Hsu et al., “Meta-analysis and cost comparison of polyethylene glycol lavage versus sodium phosphate for colonoscopy preparation,” Gastrointestinal Endoscopy 48(3):276-282, 1998, wherein small bits of fecal material in the colon were allowed in an “Excellent” score.

[5] = set-up: species or system mice, rats, dogs, rabbits, and monkeys; details: in vivo
Protocol: as §6

[6] = 24-g single dose; Raymer scale; cited from earlier work
[7] = Example 3: open-label, 2-site dose-escalating split-dose study of L-glucose before colonoscopy (GPA and RSS); format: in vivo, human
From the text: Applicants have relied upon a combination of a categorical, 4-point scale and a numerical, segmental scoring system to assess bowel cleansing quality (Balaban et al. “Low volume bowel preparation for colonoscopy: randomized, endoscopist-blinded trial of liquid sodium phosphate versus tablet sodium phosphate,” Am J Gastroenterol 98:827-32, 2003). The basic 4-point scale, known as the Global Preparation Assessment (GPA), is essentially the same as the original scale used in the first randomized controlled trial of PHOSPHO-SODA™ as a bowel cleansing agent published in 1990 by Vanner, et al. (“A randomized prospective trial comparing oral sodium phosphate with standard polyethylene glycol-based lavage solution (Golytely) in the preparation of patients for colonoscopy,” Am J Gastroenterol 85:422-7, 1990). The numerical scoring system, known as the Residual Stool Score (RSS), is a continuously variable, averaged segmental scoring instrument that assesses both the amount and consistency of residual stool before suctioning (a measure of the cathartic activity of the bowel cleansing regimen) as well as the percent of the bowel wall seen after washing and cleansing (a measure of the ultimate endpoint for bowel preparation success). The two scales are shown below.
as §1, §2, §3, §4, §5
This open-label, 2-site study employed a dose-escalating design using 3 split doses of L-glucose (24 g/24 g, 36 g/36 g, and 48 g/48 g). The doses were administered the night before and the morning of a scheduled colonoscopy. The study was conducted in Phase I facilities to control for administration of L-glucose and adherence to the dietary and hydration regimen.
Three dose cohorts of 24 subjects were evenly divided between males and females for each cohort. Subjects who were scheduled to undergo an elective colonoscopy, who met the study entrance criteria, and who gave their consent to participate in the study were enrolled. […] Each subject observed a strict diet and hydration regimen as part of the study medication administration.
The site pharmacist prepared the L-glucose preparation based on the study medication preparation manual provided. Each subject, regardless of dose cohort, received the dose in 8 ounces of water, which was to be consumed within a 10-minute period. Dose cohorts proceeded in a dose-escalating fashion starting with the lowest dose (24 g/24 g) and escalated according to a dose escalation decision tree.
The physician performing the colonoscopy utilized Applicant's GPA scale to evaluate the quality of bowel preparation as before suctioning and washing.
The Residual Stool Score (RSS) described above was also used to assess bowel cleansing in each of the 5 segments of the bowel (rectum, descending colon, transverse colon, ascending colon, and cecum). As noted, assessments included the amount of stool present, the consistency of the stool, and the estimated percentage of the bowel wall visualized in each segment.
For reasons of inadequate bowel preparation, sections of the bowel that were not directly examined during colonoscopy were rated as “poor” on all three measures listed previously.
A total of 24 subjects were enrolled into each of the three dose cohorts. All 72 subjects were included in the intent-to-treat (ITT) and safety populations.

[8] = Clinical studies of L-glucose absorption, elimination and tolerability; format: in vivo, human
[9] = 5 min. delay before stirring, listed as L- glucose monohydrate^2, monohydrate
[10] = no delay before stirring, listed as L- glucose monohydrate^2, monohydrate
[11] = 24 g, 30 g, 24 g + 12 g regimens
[12] = Total of all three dose cohorts, ITT, N = 72

SMILES: O.O=C[C@@H](O)[C@H](O)[C@@H](O)[C@@H](O)CO [L-glucose monohydrate]
- Time of stirring until sample fully dissolved ([1]; 5 min. delay before stirring, listed as L- glucose monohydrate^1, monohydrate): Sample fully dissolved after 2.5 min. of stirring.
- Time of stirring until sample fully dissolved [1, 9]: Fully dissolved after 1 min. of stirring. Final
- Time of stirring until sample fully dissolved ([1]; no delay before stirring, listed as L- glucose monohydrate^1, monohydrate): Sample fully dissolved after 2.5 min. of stirring.
- Time of stirring until sample fully dissolved [1, 10]: Fully dissolved after 2 min. of stirring. Final
- Observation of undissolved solid / clumping ([1]; 5 min. delay before stirring): Several clusters of solid at 1 min. Final solution
- Appearance of final solution [1, 9]: solution was clear, colorless and homogeneous
- Observation of undissolved solid / clumping ([1]; no delay before stirring): Several clusters of solid at 1 min. Final solution
- Appearance of final solution [1, 10]: solution was clear, colorless and homogeneous

SMILES: O=C[C@@H](O)[C@H](O)[C@@H](O)[C@@H](O)CO [L-glucose]
- Outcome of evening-only dose arms ([2]; 24 g and 30 g evening-only doses): suspended for lack of effectiveness
- Changes in laboratory test results [2, 11]: no clinically significant changes
- Commonly reported adverse events [2, 11]: generally absent or mild
- Overall tolerance to the bowel preparation [2, 11]: good or very good
- Clinical efficacy (combination of excellent and good GPA assessments) ([2]; single-dose schedule (24 g or 30 g evening only), 7/31 subjects): 23%
- Clinical efficacy (combination of excellent and good GPA assessments) ([2]; split-dose schedule: 24 g evening followed by 12 g morning, 19/27 subjects): 70%
- Toxicity from continuous administration ([3]; rat, in vivo): no overt evidence of toxicity
- Maximum tolerated dose ([3]; rats): 10 % dietary level
- Acceptability as a colonic cleanser [4]: not acceptable
- Effect of food restriction on metabolism [5]: no significant effect
- Major route of elimination [5]: urinary excretion
- Metabolism of L-glucose [5]: no metabolism
- Subjects with colonoscopy preparation grade of excellent or good [6]: 80%
- Global Preparation Assessment, Max ([7]; 24 g/24 g cohort, ITT, n = 24): 4.00
- Global Preparation Assessment, Mean (SD) ([7]; 24 g/24 g cohort, ITT, n = 24): 3.29 (0.81)
- Global Preparation Assessment, Median ([7]; 24 g/24 g cohort, ITT, n = 24): 3.50
- Global Preparation Assessment, Min ([7]; 24 g/24 g cohort, ITT, n = 24): 2.00
- Subjects with GPA Fair, number (percentage) ([7]; 24 g/24 g cohort, ITT, n = 24): 5 (20.8)
- Subjects with GPA Good, number (percentage) ([7]; 24 g/24 g cohort, ITT, n = 24): 7 (29.2)
- Subjects with GPA Poor, number (percentage) ([7]; 24 g/24 g cohort, ITT, n = 24): 0 (0.0)
- Global Preparation Assessment, Max ([7]; 36 g/36 g cohort, ITT, n = 24): 4.00
- Global Preparation Assessment, Median ([7]; 36 g/36 g cohort, ITT, n = 24): 4.00
- Global Preparation Assessment, Min ([7]; 36 g/36 g cohort, ITT, n = 24): 1.00
- Subjects with GPA Fair, number (percentage) ([7]; 36 g/36 g cohort, ITT, n = 24): 2 (8.3)
- Subjects with GPA Good, number (percentage) ([7]; 36 g/36 g cohort, ITT, n = 24): 7 (29.2)
- Global Preparation Assessment, Max ([7]; 48 g/48 g cohort, ITT, n = 24): 4.00
- Global Preparation Assessment, Median ([7]; 48 g/48 g cohort, ITT, n = 24): 4.00
- Global Preparation Assessment, Min ([7]; 48 g/48 g cohort, ITT, n = 24): 2.00
- Subjects with GPA Fair, number (percentage) ([7]; 48 g/48 g cohort, ITT, n = 24): 1 (4.2)
- Subjects with GPA Good, number (percentage) ([7]; 48 g/48 g cohort, ITT, n = 24): 1 (4.2)
- Subjects with GPA Poor, number (percentage) ([7]; 48 g/48 g cohort, ITT, n = 24): 0 (0.0)
- Efficacy compared among the three split doses ([7]; 48 g/48 g dose): greatest efficacy
- Time to the first watery bowel movement, compared among doses ([7]; 48 g/48 g dose): shortest time to the first watery bowel movement
- GPA, mean (SD) ([7]; Site 01, all dose cohorts): 3.68 (0.75)
- Subjects who had a complete colonoscopy, number (percentage) ([7]; Site 01, all dose cohorts): 30 (96.8%)
- Subjects with GPA rated poor, number (percentage) ([7]; Site 01, all dose cohorts): 1 (3.2%)
- Subjects with GPA rated excellent ([7]; Site 01, all dose cohorts, 25 subjects): 80.7%
- GPA, mean (SD) ([7]; Site 02, all dose cohorts): 3.41 (0.74)
- Subjects who had a complete colonoscopy, number (percentage) ([7]; Site 02, all dose cohorts): 39 (95.1%)
- Subjects with GPA rated excellent ([7]; Site 02, all dose cohorts, 23 subjects): 56.1%
- Global Preparation Assessment, Max [7, 12]: 4.00
- Global Preparation Assessment, Mean (SD) [7, 12]: 3.53 (0.75)^
- Global Preparation Assessment, Median [7, 12]: 4.00
- Global Preparation Assessment, Min [7, 12]: 1.00
- Subjects with GPA Excellent, number (percentage) [7, 12]: 48 (66.7)
- Subjects with GPA Fair, number (percentage) [7, 12]: 8 (11.1)
- Subjects with GPA Good, number (percentage) [7, 12]: 15 (20.8)
- Subjects with GPA Poor, number (percentage) [7, 12]: 1 (1.4)
- Subjects who had a complete colonoscopy (to the level of the cecum), number (percentage) ([7]; in each dose cohort (24 g/24 g, 36 g/36 g, 48 g/48 g)): 23 (95.8%)
- Metabolism by colonic bacteria ([8]; breath hydrogen in humans, comparable with in vitro studies): colonic bacteria do not metabolize L-glucose
- Absorption from the intestine ([8]; human, in vivo): moderately absorbed
- Glucose or insulin response after administration ([8]; human, in vivo): No significant glucose or insulin response
- Lower gastrointestinal symptoms (cramping, gas/flatus) ([8]; human, in vivo): occurred in a majority of subjects, but symptoms were mild
- Major routes of elimination ([8]; human, in vivo): fecal and urinary excretion
- Mild upper gastrointestinal symptoms (vomiting, nausea, belching/rifting, bloating) ([8]; human, in vivo): occurred in a minority of subjects
